Experimental data taken from the NIST ThermoML archive (doi:10.1016/j.fluid.2009.02.010).
Numbers after ± are expanded uncertainties. One block for each compound: values may come before it.

Tests used:
[1] = refractive index (Na D-line) (dimensionless); conditions: 298.15 K; 101.33 kPa; Liquid; Standard Abbe refractometry
[2] = Liquid, Ebulliometric method (Recirculating still)

refractive index [1]: 1.3889 ± 0.0007
Compound: CC(C)CC(C)(C)C [2,2,4-trimethylpentane]

refractive index [1]: 1.4062 ± 0.0007
Compound: C=C(C)CC(C)(C)C [2,4,4-trimethyl-1-pentene]

refractive index [1]: 1.3849 ± 0.0007
Compound: C=CCCCC [hex-1-ene]

Continued, compound first:

Compound: Cc1ccccc1C [1,2-dimethylbenzene]
refractive index [1]: 1.5028 ± 0.0007

Compound: C1CCCCC1 [cyclohexane]
refractive index [1]: 1.4235 ± 0.0007

Compound: Cc1ccsc1 [3-methylthiophene]
vapor or sublimation pressure ([2]; 333.15 K): 15.43 ± 0.35 kPa
vapor or sublimation pressure ([2]; 341.98 K): 21.8 ± 0.35 kPa
vapor or sublimation pressure ([2]; 350.79 K): 30.23 ± 0.36 kPa
vapor or sublimation pressure ([2]; 359.01 K): 40.33 ± 0.37 kPa
vapor or sublimation pressure ([2]; 365.62 K): 50.31 ± 0.38 kPa
vapor or sublimation pressure ([2]; 371.73 K): 61.23 ± 0.39 kPa
vapor or sublimation pressure ([2]; 376.26 K): 70.53 ± 0.4 kPa
vapor or sublimation pressure ([2]; 380.53 K): 80.35 ± 0.42 kPa
vapor or sublimation pressure ([2]; 384.69 K): 91 ± 0.43 kPa
vapor or sublimation pressure ([2]; 387.89 K): 100.02 ± 0.44 kPa
refractive index [1]: 1.5172 ± 0.0007
